Columns and labels:
[1] = system: bamyardgrass; assay: Test B flood test barnyardgrass; assay type: in vivo, Echinochloa crus-galli
In short: (§1)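 Plants were grown to the 2-leaf stage before treatment with test chemical, then held in a greenhouse for twelve to sixteen days. Injury was visually rated against untreated controls on a 0–10 scale, where 0 is no effect and 10 is complete control.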

[2] = system: crabgrass; assay: Test B pre/postemergence crabgrass; assay type: in vivo, Digitaria sanguinalis; details: for Crabgrass plant response rating: scale of 0 to 10 where 0 is no effect and 10 is complete control
In short: (§2)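 Herbicidal effect was estimated by eye on a ten-point control scale after plants spent twelve to sixteen days in a greenhouse following soil or foliar treatment. Foliar sprays targeted plants at one to four leaves; all doses were formulated in a non-phytotoxic solvent with surfactant.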

[3] = system: blackgrass; assay: Test B pre/postemergence blackgrass; assay type: in vivo, Alopecurus myosuroides
In short: as §2

[4] = system: rice; assay: Test B flood test rice; assay type: in vivo, Oryza sativa
In short: as §1

[5] = system: soybean; assay: Test B pre/postemergence soybean; assay type: in vivo, Glycine max; details: for Soybean plant response rating: scale of 0 to 10 where 0 is no effect and 10 is complete control
In short: as §2

[6] = system: bedstraw; assay: Test B pre/postemergence bedstraw; assay type: in vivo, Galium aparine
In short: as §2

[7] = system: purple nutsedge; assay: Test B pre/postemergence purple nutsedge; assay type: in vivo, Cyperus rotundus; details: for Nutsedge plant response rating: scale of 0 to 10 where 0 is no effect and 10 is complete control
In short: as §2

[8] = system: wheat; assay: Test B pre/postemergence wheat; assay type: in vivo, Triticum aestivum; details: for Wheat plant response rating: scale of 0 to 10 where 0 is no effect and 10 is complete control
In short: as §2

[9] = system: corn; assay: Test B pre/postemergence corn; assay type: in vivo, Zea mays; details: for Corn plant response rating: scale of 0 to 10 where 0 is no effect and 10 is complete control
In short: as §2

[10] = system: cocklebur; assay: Test B pre/postemergence cocklebur; assay type: in vivo, Xanthium strumarium; details: for Cocklebur plant response rating: scale of 0 to 10 where 0 is no effect and 10 is complete control
In short: as §2

[11] = system: sugar beet; assay: Test B pre/postemergence sugar beet; assay type: in vivo, Beta vulgaris; details: for Sugarbeets plant response rating: scale of 0 to 10 where 0 is no effect and 10 is complete control
In short: as §2

[12] = system: surinam grass; assay: Test B pre/postemergence surinam grass; assay type: in vivo, Brachiaria decumbens
In short: as §2

[13] = system: smallflower flatsedge; assay: Test B flood test smallflower flatsedge; assay type: in vivo, Cyperus difformis
In short: as §1

[14] = system: velvetleaf; assay: Test B pre/postemergence velvetleaf; assay type: in vivo, Abutilon theophrasti; details: for Velvetleaf plant response rating: scale of 0 to 10 where 0 is no effect and 10 is complete control
In short: as §2

[15] = system: duck salad; assay: Test B flood test duck salad; assay type: in vivo, Heteranthera limosa
In short: as §1

[16] = system: wild oat; assay: Test B pre/postemergence wild oat; assay type: in vivo, Avena fatua; details: for Wild oats plant response rating: scale of 0 to 10 where 0 is no effect and 10 is complete control
In short: as §2

[17] = Postemergence (flood test), Rate 125 g/ha, scale 0 to 10, 0 is no effect, 10 is complete control
[18] = Rate 62 g/ha, Postemergence (flood test species), scale of 0 to 10 where 0 is no effect and 10 is complete control
[19] = Rate 500 g/ha, listed under Postemergence (flood test species), scale 0 to 10, 0 no effect, 10 complete control
[20] = Postemergence, Rate 125 g/ha, scale 0 to 10, 0 is no effect, 10 is complete control
[21] = Preemergence, Rate 62 g/ha, scale 0 to 10 (0 no effect, 10 complete control)
[22] = Rate 500 g/ha, Postemergence, scale 0 to 10, 0 no effect, 10 complete control
[23] = Preemergence, Rate 250 g/ha, scale of 0 to 10 where 0 is no effect and 10 is complete control
[24] = Preemergence, Rate 500 g/ha, scale of 0 to 10 where 0 is no effect and 10 is complete control
[25] = Rate 62 g/ha, Postemergence, scale of 0 to 10 where 0 is no effect and 10 is complete control
[26] = Rate 250 g/ha, Postemergence, scale of 0 to 10 where 0 is no effect and 10 is complete control

COCC(C)n1c(=O)on(C(=O)N(c2ccc(F)cc2F)C(C)C)c1=O (stereo not shown) [Compound 357]
Plant response rating, Barnyardgrass [1, 17]: 2 | Barnyardgrass plant response rating [1, 18]: 0 | Plant response rating, Barnyardgrass ([1]; Rate 250 g/ha, Postemergence (flood test species), scale of 0 to 10 where 0 is no effect and 10 is complete control): 4 | Plant response rating, Barnyardgrass [1, 19]: 6 | Plant response rating, Crabgrass [2, 20]: 2 | Plant response rating, Crabgrass [2, 21]: 9 | Crabgrass plant response rating (0 to 10 scale) ([2]; Preemergence, Rate 125 g/ha): 9 | Crabgrass plant response rating ([2]; Preemergence, Rate 250 g/ha): 9 | Crabgrass plant response rating ([2]; Preemergence, Rate 500 g/ha): 10 | Crabgrass plant response rating ([2]; Rate 62 g/ha, Postemergence): 2 | Plant response rating, Crabgrass [2, 22]: 5 | Plant response rating, Blackgrass [3, 20]: 6 | Plant response rating, Blackgrass [3, 21]: 7 | Blackgrass plant response rating (0 to 10 scale) ([3]; Preemergence, Rate 125 g/ha): 8 | Blackgrass plant response rating [3, 23]: 9 | Blackgrass plant response rating [3, 24]: 10 | Blackgrass plant response rating [3, 25]: 3 | Plant response rating, Blackgrass [3, 26]: 6 | Plant response rating, Blackgrass [3, 22]: 7 | Plant response rating, Rice [4, 17]: 0 | Rice plant response rating [4, 18]: 0 | Plant response rating, Rice [4, 19]: 2 | Plant response rating, Soybean [5, 20]: 2 | Plant response rating, Soybean [5, 21]: 0 | Soybean plant response rating (0 to 10 scale) ([5]; Preemergence, Rate 125 g/ha): 0 | Soybean plant response rating ([5]; Preemergence, Rate 250 g/ha): 0 | Soybean plant response rating ([5]; Preemergence, Rate 500 g/ha): 0 | Soybean plant response rating ([5]; Rate 62 g/ha, Postemergence): 2 | Plant response rating, Soybean [5, 22]: 3 | Plant response rating, Bedstraw [6, 20]: 0 | Plant response rating, Bedstraw [6, 21]: 10 | Bedstraw plant response rating (0 to 10 scale) ([6]; Preemergence, Rate 125 g/ha): 10 | Bedstraw plant response rating [6, 23]: 10 | Bedstraw plant response rating [6, 24]: 10 | Bedstraw plant response rating [6, 25]: 0 | Plant response rating, Bedstraw [6, 26]: 0 | Plant response rating, Bedstraw [6, 22]: 5 | Plant response rating, Nutsedge [7, 20]: 0 | Plant response rating, Nutsedge [7, 21]: 0 | Nutsedge plant response rating (0 to 10 scale) ([7]; Preemergence, Rate 125 g/ha): 0 | Nutsedge plant response rating ([7]; Preemergence, Rate 250 g/ha): 0 | Nutsedge plant response rating ([7]; Preemergence, Rate 500 g/ha): 6 | Nutsedge plant response rating ([7]; Rate 62 g/ha, Postemergence): 0 | Plant response rating, Nutsedge [7, 22]: 2 | Plant response rating, Wheat [8, 20]: 5 | Plant response rating, Wheat [8, 21]: 4 | Wheat plant response rating (0 to 10 scale) ([8]; Preemergence, Rate 125 g/ha): 6 | Wheat plant response rating ([8]; Preemergence, Rate 250 g/ha): 9 | Wheat plant response rating ([8]; Preemergence, Rate 500 g/ha): 9 | Wheat plant response rating ([8]; Rate 62 g/ha, Postemergence): 4 | Plant response rating, Wheat [8, 22]: 7 | Plant response rating, Corn [9, 20]: 0 | Plant response rating, Corn [9, 21]: 0 | Corn plant response rating (0 to 10 scale) ([9]; Preemergence, Rate 125 g/ha): 0 | Corn plant response rating ([9]; Preemergence, Rate 250 g/ha): 6 | Corn plant response rating ([9]; Preemergence, Rate 500 g/ha): 9 | Corn plant response rating ([9]; Rate 62 g/ha, Postemergence): 0 | Plant response rating, Corn [9, 22]: 3 | Plant response rating, Cocklebur [10, 20]: 0 | Plant response rating, Cocklebur [10, 21]: 0 | Cocklebur plant response rating (0 to 10 scale) ([10]; Preemergence, Rate 125 g/ha): 0 | Cocklebur plant response rating ([10]; Preemergence, Rate 250 g/ha): 0 | Cocklebur plant response rating ([10]; Preemergence, Rate 500 g/ha): 0 | Cocklebur plant response rating ([10]; Rate 62 g/ha, Postemergence): 0 | Plant response rating, Cocklebur [10, 22]: 2 | Plant response rating, Sugarbeets [11, 20]: 0 | Plant response rating, Sugarbeets [11, 21]: 2 | Sugarbeets plant response rating (0 to 10 scale) ([11]; Preemergence, Rate 125 g/ha): 3 | Sugarbeets plant response rating ([11]; Preemergence, Rate 250 g/ha): 5 | Sugarbeets plant response rating ([11]; Preemergence, Rate 500 g/ha): 6 | Sugarbeets plant response rating ([11]; Rate 62 g/ha, Postemergence): 0 | Plant response rating, Sugarbeets [11, 22]: 0 | Plant response rating, B. signalgrass [12, 20]: 0 | Plant response rating, B. signalgrass [12, 21]: 1 | B. signalgrass plant response rating (0 to 10 scale, 0 is no effect, 10 is complete control) ([12]; Preemergence, Rate 125 g/ha): 3 | B. signalgrass plant response rating [12, 23]: 6 | B. signalgrass plant response rating [12, 24]: 7 | B. signalgrass plant response rating [12, 25]: 0 | Plant response rating, B. signalgrass [12, 26]: 4 | Plant response rating, B. signalgrass [12, 22]: 7 | Plant response rating, S. Flatsedge [13, 17]: 0 | S. Flatsedge plant response rating [13, 18]: 0 | Plant response rating, S. Flatsedge [13, 19]: 8 | Plant response rating, Velvetleaf [14, 20]: 2 | Plant response rating, Velvetleaf [14, 21]: 4 | Velvetleaf plant response rating (0 to 10 scale) ([14]; Preemergence, Rate 125 g/ha): 5 | Velvetleaf plant response rating ([14]; Preemergence, Rate 250 g/ha): 5 | Velvetleaf plant response rating ([14]; Preemergence, Rate 500 g/ha): 7 | Velvetleaf plant response rating ([14]; Rate 62 g/ha, Postemergence): 2 | Plant response rating, Velvetleaf [14, 22]: 4 | Plant response rating, Ducksalad [15, 17]: 0 | Ducksalad plant response rating [15, 18]: 0 | Plant response rating, Ducksalad [15, 19]: 2 | Plant response rating, Wild oats [16, 20]: 4 | Plant response rating, Wild oats [16, 21]: 9 | Wild oats plant response rating (0 to 10 scale) ([16]; Preemergence, Rate 125 g/ha): 10 | Wild oats plant response rating ([16]; Preemergence, Rate 250 g/ha): 10 | Wild oats plant response rating ([16]; Preemergence, Rate 500 g/ha): 10 | Wild oats plant response rating ([16]; Rate 62 g/ha, Postemergence): 3 | Plant response rating, Wild oats [16, 22]: 6

Source: US6737383B1, “Herbicidal oxadiazolidines” (priority 1999, dated 2004)
